System: mouse E18 hippocampal neurons
Assay: Immunocytochemistry of neuronal markers
Type: cell-based
Details: 1 μM, 5 days, vs vehicle
Experimental: For recovering proteins, cells were seeded in 6-well dishes coated with poly-D-lysine (SigmaAldrich, St. Louis, Mo., USA), 50 μg/ml for an overnight, at a density of 1×10^6 cells/well. For immunocytochemistry, cells were seeded onto 5 mm cover slips coated with poly-D-lysine at a density of 7×10^4 cells/well in 100 μl Defined Medium in 96 well plates. The cells were cultured for four days in vitro prior to the beginning of the treatment with the peptides. The treatment with the peptides was done for five days (starting at DIV 4 and finishing at DIV 9). The culture medium was exchanged completely at the beginning of the treatment with a test peptide (at DIV4), and every 72 h until DIV 9.
After 5 days of treatment, cells seeded on cover slips were fixed in 4% paraformaldehyde (Electron Microscopy Sciences, PA, USA) for 30 min at room temperature, and then washed 2× in PBS for storage at 4° C. prior to staining. Cells were permeabilized in 0.2% Triton-X-100 in PBS for 30 min at 25° C. and incubated in blocking buffer (1% BSA w/v, 0.2% Triton-X-100 v/v in PBS) for 60 min at 25° C. The cells were then incubated with primary antibodies at the appropriate dilutions in blocking buffer at 4° C. for 16 h, washed 3×10 min with 0.2% Triton X100 in PBS, and incubated with fluorescently-labeled secondary antibodies diluted in blocking buffer for 1 h at 25° C. in the dark. Cover slips were washed 3×10 min in 0.2% Triton X-100 in PBS and mounted on glass slides with GelMount (Biomeda, Foster City, Calif., USA). The following primary antibodies were used: rabbit polyclonal anti-GFAP (1:500; Sigma-Aldrich, St. Louis, Mo., USA); rabbit polyclonal anti-NFM (1:200; Chemicon/Millipore, Billerica, Mass., USA); mouse monoclonal anti-NeuN (1:300; Millipore, Billerica, Mass., USA); rabbit polyclonal anti-Tuj-1, 0—III-tubulin (1:800; Covance, Emeryville, Calif., USA); mouse monoclonal SMI 52 to the adult isoforms of MAP-2, MAP2a,b (1:1000; Covance, Emeryville, Calif., USA); rabbit polyclonal anti-synapsin I (1:2000; Stressgen, Farmingdale, N.Y., USA); and rabbit monoclonal anti-PSD95 (1:100; Cell Signaling, Danvers, Mass., USA). Secondary goat anti-mouse and anti-rabbit IgGs conjugated with AlexaFluor 594 were used at 1:1000 (Molecular Probes, Carlsbad, Calif., USA). The nuclei were stained with 1 μM TOPRO in PBS (Invitrogen, Grand Island, N.Y., USA). Mounted cover slips were examined using 40× oil immersion objective of a Nikon 90i fluorescent microscope equipped with Nikon C1 three-laser confocal system and a Nikon DS U1 digital camera, and analyzed with EZ-C1 Viewer Image software, Version 6.0. […]

Ac-I-K-R-G-CONH2 [Peptide B-5]
induced an increase: expression of 0-III-tubulin (immunocytochemistry) | expression of MAP2 (immunocytochemistry) | expression of NFM (immunocytochemistry) | expression of NeuN (immunocytochemistry)

From patent publication US9512178B2, “Neurogenic brain-derived neurotrophic factor peptides” (Research Foundation for Mental Hygiene, Inc., priority 2012, dated 2016)
